The text below walks through data of patent US4248864A, “Reproduction control” (American Home Products Corporation, priority 1979, dated 1981).

“And” between values parts separate entries of the source, which are not always exact repeats. Identical values can stand only once. “Also recorded” adds a separate entry of the source.

Test [1] concerns Female Charles River CD rats (pregnancy). As to the kind of experiment: Single intravaginal or intrajugular administration on D5 of pregnancy. The test is classed as in vivo, rat. Particulars: for Number of placental sites, left horn / Number of placental sites, right horn / Number of viable fetuses, left horn / Number of viable fetuses, right horn / Uterine weight, left horn / Uterine weight, right horn: 5 rats/group; for Uterine weight, left horn / Uterine weight, right horn: in g.

The subject of test [2] is pregnancy. The settings on record: cited from earlier work.
Test [3] relates to Female Charles River CD rats (pregnancy). As to the kind of experiment: Post-coital contraceptive effect in the rat: single intrauterine (right horn) administration on D5 of pregnancy. The test is classed as in vivo. The settings on record: for Number of placental sites, left horn / Number of placental sites, right horn (injected) / Number of viable fetuses, left horn / Number of viable fetuses, right horn (injected) / Uterine weight, left horn and contents / Uterine weight, right horn (injected) and contents: autopsy D20, 15 rats/group; for Uterine weight, left horn and contents / Uterine weight, right horn (injected) and contents: in g. On the procedure:
Female Charles River CD® rats (200-210 g) were allowed to cohabit with proven males; the presence of sperm in the vaginal smear was considered day 1 (D1) of pregnancy. In order to lessen the problem of variability between experiments, 5 rats were autopsied at each dose level and the study replicated 3 times to accumulate a total of 15 rats in each experimental group. Luteinizing hormone-releasing hormone was dissolved in 2 μl of 0.9% NaCl and injected into the right horn of the uterus below the utero-tubal junction between 0945 and 1015 h on D5. One group of control animals received an intrauterine (IU) injection of 2 μl saline into the right horn on D5. The control animals were autopsied in groups of 5 rats and replicated 3 times to accumulate a total of 15 rats. On D20 the rats were sacrificed, and the uterine horns were divided and weighed individually. The number of viable fetuses as well as the number of placental sites in each horn was recorded. Fetuses from both horns, in control and experimental groups, were examined and weighed individually. A viable fetus is defined as one which compares in anatomical development and weight to a normal control fetus at D20 of gestation. Statistical analysis of the number of viable fetuses and placental sites in each horn was determined by the Kruwalc-Henderson method (Proc. Third Am. Conference of the SAS Users Group International, SAS Institute, Raleigh, North Carolina (1978)); uterine weights of each horn were subjected to analysis of variance (Conover, Practical Nonparametric Statistics, N.Y. John Wiley and Sons, Inc. page 256 (1979)).
Following the same procedure, [D-Trp^6, des-Gly-NH2^10 ]LHRH ethylamide (a representative LHRH agonist analogue) was injected into the uterine lumen of the right uterine horn of female Charles River CD® rats on day 5 after coitus. The status of the pregnancy as indicated by viable fetuses was as follows: […]

Test [4] deals with zona pellucida of blastocyst. As to the kind of experiment: In vitro removal (lysis) of the zona pellucida of a blastocyst. The test is classed as cell-based. The source says:
To denude a blastocyst of its zona pellucide in vitro the fertilized ovum is removed from the uterus of the donor animal by known means. The blastocyst is then placed in a small volume of known compatable medium such as physiological saline and LHRH or an agonist is introduced into the medium. The course of removal of the zona pellucida may be readily followed with a microscope and the time period necessary for complete removal of the zona is related to the concentration of the releasing hormone, thereby permitting timed blastocyst release during egg transplant procedures. At 500 μg/μl LHRH in 0.9 percent saline the zona pellucida lyses in about 0.5 minutes; at 50 μg/μl in about 15 to 25 minutes and at 15 μg/μl in about 60 minutes. Recovery of the free blastocyst and transfer to the uterus of a properly prepared and timed mammalion species may then be effected by conventional transfer techniques under optimal timing conditions of both the fertilized egg and the uterine epithelium.

Setting [5] is: dose 1,000, single intrajugular (IV) D5.
Where [6] appears, read: dose 1,000, single intravaginal (Vag) D5.
[7] abbreviates: 100 μg intrauterine right horn D5.
[8] abbreviates: 200 μg intrauterine right horn D5.
Where [9] appears, read: 300 μg intrauterine right horn D5.
Where [10] appears, read: 500 μg intrauterine right horn D5.
Where [11] appears, read: 1,000 μg intrauterine right horn D5.
Setting [12] is: 10 μg into right uterine horn day 5 after coitus, 4 rats.
Setting [13] is: 100 μg into right uterine horn day 5 after coitus, 5 rats.
[14] abbreviates: 1,000 μg into right uterine horn day 5 after coitus, 4 rats.

Take “Luteinizing hormone releasing hormone [LHRH]”: the “Effect on pregnancy (viable fetuses, uterine weight, placental sites) in either horn” value in test [1] (1000 μg via jugular vein or vagina on D5) was “failed to alter the pregnancy in either horn; also recorded: inactive; also recorded: no negative effects”. Besides, in test [1] (setting [5]), the “Number of placental sites, left horn” value is on record as 0.6±0.2; the “Number of placental sites, right horn” value came out at 0.2±0.2; the “Number of viable fetuses, left horn” value is 7.4±0.7; the “Number of viable fetuses, right horn” value is on record as 5.4±1.0. Moreover, in test [1] (setting [5]), the “Uterine weight, left horn” value stood at 26.3±3.0 and the “Uterine weight, right horn” value was 18.2±3.9. Further, in test [1] (setting [6]), the “Number of placental sites, left horn” value is reported as 0.4±0.2; the “Number of placental sites, right horn” value was found to be 0.2±0.2; the “Number of viable fetuses, left horn” value came to 6.6±0.9; the “Number of viable fetuses, right horn” value was found to be 7.4±0.8. For the same substance, in test [1] (setting [6]), the “Uterine weight, left horn” value came out at 20.5±2.9 and the “Uterine weight, right horn” value worked out at 21.4±2.0. For the same substance, the “Effect on number of viable fetuses or uterine weight” value in test [2] (1000 μg injection (s.c.) on D5, Humphrey et al.) was “failed to alter”. In test [2] (acute subcutaneous injection of 5000 μg, Beattie and Corbin 1977), the “Effect on ensuing pregnancy” value is on record as “failed to inhibit the ensuing pregnancy”. Moreover, in test [3] (setting [7]), the “Number of placental sites, left horn” value was found to be 0.1 ± 0.1; the “Number of placental sites, right horn (injected)” value is 0.1 ± 0.1; the “Number of viable fetuses, left horn” value is 5.7 ± 0.4; the “Number of viable fetuses, right horn (injected)” value came to 3.2 ± 0.3. In test [3] (setting [7]), the “Uterine weight, left horn and contents” value was found to be 19.1 ± 1.5; the “Uterine weight, right horn (injected) and contents” value is reported as 12.0 ± 1.0. In test [3] (setting [8]), the “Number of placental sites, left horn” value was determined as 0.1 ± 0.1; the “Number of placental sites, right horn (injected)” value is 1.6 ± 0.5; the “Number of viable fetuses, left horn” value is 5.4 ± 0.8; the “Number of viable fetuses, right horn (injected)” value was found to be 1.7 ± 0.4. In addition, in test [3] (setting [8]), the “Uterine weight, left horn and contents” value is recorded as 19.4 ± 2.7; the “Uterine weight, right horn (injected) and contents” value turned out to be 6.5 ± 1.3. Moreover, in test [3] (setting [9]), the “Number of placental sites, left horn” value worked out at 0.7 ± 0.6; the “Number of placental sites, right horn (injected)” value is on record as 1.3 ± 0.3; the “Number of viable fetuses, left horn” value worked out at 6.5 ± 0.6; the “Number of viable fetuses, right horn (injected)” value is on record as 1.5 ± 0.4. Also, in test [3] (setting [9]), the “Uterine weight, left horn and contents” value stood at 21.2 ± 2.3; the “Uterine weight, right horn (injected) and contents” value was found to be 6.9 ± 1.6. Also, in test [3] (setting [10]), the “Number of placental sites, left horn” value is reported as 0.5 ± 0.3; the “Number of placental sites, right horn (injected)” value was 1.5 ± 0.7; the “Number of viable fetuses, left horn” value amounted to 6.1 ± 0.7; the “Number of viable fetuses, right horn (injected)” value is recorded as 1.3 ± 0.3. In test [3] (setting [10]), the “Uterine weight, left horn and contents” value is recorded as 21.8 ± 2.0; the “Uterine weight, right horn (injected) and contents” value is 6.0 ± 0.9. Further, in test [3] (setting [11]), the “Number of placental sites, left horn” value is 0.3 ± 0.2; the “Number of placental sites, right horn (injected)” value was 2.3 ± 0.6; the “Number of viable fetuses, left horn” value was determined as 6.9 ± 0.7; the “Number of viable fetuses, right horn (injected)” value was 0.8 ± 0.2 and 0.8. Moreover, in test [3] (setting [11]), the “Uterine weight, left horn and contents” value was found to be 24.3 ± 2.5; the “Uterine weight, right horn (injected) and contents” value was found to be 4.3 ± 0.8. For the same substance, in test [3] (200-1000 μg intrauterine right horn D5), the “Number of placental sites vs control” value is “significant increase”. The “Number of viable fetuses in the right horn vs control” value in test [3] (all doses (100-1,000 μg) intrauterine right horn D5) is given as “significant reduction”. The “Single intra-uterine treatment dose sufficient to prevent pregnancy” value in test [3] is “about 1,000 μg”. The “Time to lysis of the zona pellucida” value in test [4] (15 μg/μl in 0.9 percent saline) is given as “about 60 minutes”. For the same substance, in test [4] (500 μg/μl in 0.9 percent saline), the “Time to lysis of the zona pellucida” value is “about 0.5 minutes”.

Consider “[D-Trp^6 -N-methyl-Leu^7 des-Gly NH2^10 ]LHRH ethylamide”, for which the “Single intra-uterine treatment dose sufficient to prevent pregnancy” value in test [3] came out at 100 µg.

As to “[D-Trp^6, des-Gly-NH2^10 ]LHRH ethylamide”, the entries for the “Viable Fetuses Mean, Left” value in test [3] (setting [12]), in test [3] (setting [13]) and in test [3] (setting [14]) were 6.5, 3.6 and 3.3, respectively. Also, the “Viable Fetuses Mean, Right” value in test [3] (setting [12]) came out at 3.8; in test [3] (setting [13]) it was 0.4; in test [3] (setting [14]), 0.5.
